Experimental data published in US11564911B2, “Small molecule dual-inhibitors of TRPV4 and TRPA1 for sanitizing and anesthetizing” (Duke University, priority 2016, dated 2023).

What was measured:
[1] = Compound concentration in tissues/organs and plasma by LC-MS/MS after i.p. injection; assay type: in vivo, mouse; details: 10 mg/kg i.p.; for compound concentration in liver and kidney / compound concentration in plasma / concentration at 1 h: 1 h; for concentration at 1 h: mouse, heart, brain, brainstem, trigeminal ganglion, skin, intraperitoneal
Protocol: Mice were treated with 10 mg/kg i.p. of the respective inhibitor. Post-euthanasia harvested tissue was frozen in liquid nitrogen and stored at −80° C. for further analysis.
Frozen tissue samples were partially thawed and cut into 1 mm slices, 5-15 mg tissue, 2-fold excess water (mass/vol.), 6-fold excess acetonitrile (16- . . . compounds) or methanol (GSK205) containing appropriate amount of internal standard, and 2.5 mm zirconia/silica bead (Biospec Products Inc.) were added to 500-μL polypropyl-ene (PP) conical tube, homogenized in a Fast-Prep apparatus (Thermo-Savant) at speed “4” for 20 sec at room temp, and centrifuged at 13,600 g for 5 min at room temp. Depending on the expected concentration range of the measured compound, the supernatant was diluted 1/4-1/20 (in Mobile phase A, see below) and placed in autosampler for LC-MS/MS analysis.
The LC-MS/MS assay for 16- . . . compounds and GSK205 was developed on an Agilent 1200 series LC system interfaced with Applied Biosystems API 5500QTrap, a hybrid triple quadruple-linear trap MS/MS spectrometer.
Analyst (version 1.6.1) software was used for mass parameters tuning, data acquisition, and quantification. LC column: 3×4 mm RP C18 (Phenomenex, AJ0-4287) was operated at 35° C. Mobile phase A: 0.1% formic acid, 2% acetonitrile, in LC/MS-grade water; mobile phase B: acetonitrile; flow rate: 1 mL/min, 1:1 MS/MS:waste split. Run time was 4 min. Diverter valve was used to send flow to MS/MS only between 1.2 and 2.5 min. The elution gradi-ent was: 0-0.5 min, 1% B; 0.5-1.2 min, 1-95% B; 1.2-1.5 min, 95% B; 1.5-1.6 min, 95-1% B. Autosampler was oper-ated at 4° C.; injection volume was kept at 10-50 μL. Electrospray ionization (ESI) source parameters were: positive ionization mode, curtain gas flow=30, ionization potential=5500 V, temperature=500° C., nebulizing gas 1 flow=30, nebulizing gas 2=30, declustering potential=20 V. 16- . . . compounds and GSK205 were individually infused as 100 nM solutions in 50% A/50% B at 10 μL/min flow rate and parameters optimized to provide maximal ion count for “parent” and collision-produced (“daughter”) MS/MS ions. Parent/daughter quantifier [qualifier] ions utilized: GSK205 (401.1/280[370]), 16-8 (400.1/279.1[91.1], 16-16 (387.1/280[105]), 16-18 (415.2/280[370], 16-19 (414.1/279.2[91.1]. Standard (analyte of interest)/internal standard pairs utilized: GSK205/16-16, 16-8/16-16, 16-18/GSK205, 16-19/16-8.
Calibration samples (n=6) were prepared by adding pure standard of the measured compound to tissue homogenate (tissue+2-fold excess water, mass/vol) in the appropriate range needed for the particular dosing regime. Organs studied were analyzed alongside the study samples. The following are typical ranges used (the lower value representing also the LLOQ at 80% accuracy limit, all other calibrator levels at 85% accuracy limit): 0.38-6 nM (plasma), 6-100 nM (skin), 6-48 nM (heart), 7.5-120 nM (brain), 19-300 or 1500-24000 nM (liver), 56-900 or 1500-12000 nM (kidney), 500-8000 nM (fat). Peak integration, calibration, and quantification was performed within Analyst software. The response of the peak area standard/int. std. to nominal concentration was linear with r=0.999 or better.

[2] = system: mice, UVB-exposed hind paws; assay: UVB-overexposure evoked nocifensive behavior, topical compound; assay type: in vivo, mouse; details: 0.5 mM in 40 μL
Protocol: Compounds were tested for their effect on nocifensive behavior (response to pain) following UVB overexposure. Behavioral tests were performed to evaluate the decrease in withdrawal thresholds in response to mechanical von Frey hair or thermal stimuli applied to hind paws. The Von-Frey apparatus (Ugo Basile) applied a mechanical stimulus with a flexible steel wire from underneath the hind paw. The force leading to withdrawal was determined. For the thermal stimuli test, paws were stimulated with heat from underneath applied by an infrared beam (Hargreave's test apparatus; Ugo Basile), and withdrawal latencies were recorded. The withdrawal thresholds were ascertained before and after UV exposure. Mice were exposed to UVB 3-5 days after the last application of tam/oil, using a Bio-Rad Gel Doc 2000 UV transilluminator (302 nm) for 5 min with an exposure of 600 mJ/cm^2. This represents 5-10 times the minimal erythema-inducing dose, in keeping with the rationale of inducing sunburn and studying sunburn-evoked pain.

SMILES	concentration in fat and pancreas after one hour [1]	compound concentration in liver and kidney [1]	compound concentration in plasma [1]	concentration at 1 h [1] [nM]	response to pain following UVB exposure [2]	concentration at the 6 h time-point compared to the 1 h time-point ([1]; several organs)	concentration at the 24 h time-point ([1]; several organs)
CN(CCc1ccc(Nc2nc(-c3ccccc3)cs2)cc1)Cc1ccccc1 [Compound 16-8]	above its IC50	micromolar/submicromolar	virtually undetectable	< 100	especially effective		
CCN(CCc1ccc(Nc2nc(-c3ccccc3)cs2)cc1)Cc1ccccc1 [Compound 16-19]		micromolar/submicromolar	virtually undetectable	< 100		10-20 fold	lower than at the 6 h but higher than at the 1 h time-point
CN(CCc1ccc(Nc2nc(-c3cccnc3)cs2)cc1)Cc1ccccc1 [GSK205]					as effective as vehicle		
